Test results taken from the NIST ThermoML archive (doi:10.1021/acs.jced.7b00650).
± gives the expanded uncertainty stated by the source.

Settings: Liquid; for viscosity: Capillary tube (Ostwald / Ubbelohde) method; for mass density: Vibrating tube method

CCCCCCCCC [nonane]
Settings | mass density [kg/m3] | viscosity [mPa·s]
293.21 K, 1993 kPa | 719.36 ± 0.95 | 0.7109 ± 0.008
293.21 K, 3991 kPa | 721.16 ± 0.96 | 0.7266 ± 0.0081
293.21 K, 5993 kPa | 722.88 ± 0.96 | 0.7426 ± 0.0083
293.21 K, 7996 kPa | 724.42 ± 0.97 | 0.7587 ± 0.0085
293.21 K, 10001 kPa | 725.92 ± 0.98 | 0.775 ± 0.0086
293.21 K, 13001 kPa | 728 ± 0.99 | 0.8 ± 0.0089
293.21 K, 19004 kPa | 732.11 ± 1 | 0.8517 ± 0.0095
293.21 K, 22005 kPa | 734.14 ± 1 | 0.8782 ± 0.0097
293.21 K, 24997 kPa | 736.13 ± 1 | 0.9052 ± 0.01
293.21 K, 27997 kPa | 738.31 ± 1.1 | 0.9329 ± 0.01
293.21 K, 29995 kPa | 739.58 ± 1.1 | 0.9516 ± 0.01
293.22 K, 16000 kPa | 730.02 ± 1 | 0.8254 ± 0.0092
313.1 K, 19007 kPa | 718.18 ± 1 | 0.6634 ± 0.0074
313.1 K, 22007 kPa | 720.52 ± 1 | 0.6827 ± 0.0077
313.1 K, 25009 kPa | 722.7 ± 1 | 0.7023 ± 0.0079
313.1 K, 28007 kPa | 724.82 ± 1 | 0.7222 ± 0.0081
313.1 K, 30010 kPa | 726.21 ± 1.1 | 0.7357 ± 0.0082
313.11 K, 2000 kPa | 704.08 ± 0.93 | 0.559 ± 0.0063
313.11 K, 4007 kPa | 705.88 ± 0.94 | 0.5709 ± 0.0065
313.11 K, 6006 kPa | 707.62 ± 0.95 | 0.5829 ± 0.0066
313.11 K, 8004 kPa | 709.24 ± 0.95 | 0.595 ± 0.0067
313.11 K, 10007 kPa | 710.92 ± 0.96 | 0.6072 ± 0.0068
313.11 K, 13003 kPa | 713.28 ± 0.97 | 0.6256 ± 0.007
313.11 K, 16007 kPa | 715.76 ± 0.98 | 0.6444 ± 0.0072
333 K, 2014 kPa | 688.53 ± 0.92 | 0.4535 ± 0.0052
333 K, 3990 kPa | 690.6 ± 0.92 | 0.4631 ± 0.0053
333 K, 5995 kPa | 692.58 ± 0.93 | 0.4727 ± 0.0054
333.01 K, 8001 kPa | 694.51 ± 0.94 | 0.4824 ± 0.0055
333.01 K, 10007 kPa | 696.11 ± 0.95 | 0.4921 ± 0.0056
333.01 K, 13004 kPa | 698.84 ± 0.96 | 0.5067 ± 0.0058
333.01 K, 16002 kPa | 701.48 ± 0.97 | 0.5215 ± 0.0059
333.01 K, 19006 kPa | 704.03 ± 0.98 | 0.5364 ± 0.0061
333.01 K, 22003 kPa | 706.5 ± 1 | 0.5515 ± 0.0063
333.01 K, 25006 kPa | 708.9 ± 1 | 0.5667 ± 0.0064
333.01 K, 28003 kPa | 711.23 ± 1 | 0.5821 ± 0.0066
333.01 K, 30012 kPa | 712.74 ± 1 | 0.5925 ± 0.0067
353.12 K, 2004 kPa | 672.27 ± 0.9 | 0.3733 ± 0.0044
353.12 K, 3995 kPa | 674.59 ± 0.9 | 0.3814 ± 0.0045
353.12 K, 6000 kPa | 676.83 ± 0.91 | 0.3894 ± 0.0045
353.12 K, 8005 kPa | 679.1 ± 0.92 | 0.3975 ± 0.0046
353.12 K, 10010 kPa | 681.31 ± 0.93 | 0.4056 ± 0.0047
353.12 K, 13002 kPa | 684.37 ± 0.94 | 0.4178 ± 0.0048
353.12 K, 16003 kPa | 687.3 ± 0.96 | 0.43 ± 0.005
353.12 K, 18999 kPa | 689.99 ± 0.97 | 0.4422 ± 0.0051
353.12 K, 22002 kPa | 692.72 ± 0.99 | 0.4546 ± 0.0052
353.12 K, 25004 kPa | 695.35 ± 1 | 0.467 ± 0.0054
353.12 K, 28007 kPa | 697.9 ± 1 | 0.4795 ± 0.0055
353.12 K, 30003 kPa | 699.56 ± 1 | 0.4879 ± 0.0056
